{
  "source": "patent US11622991B2",
  "about": "“Protocol for treatment of lupus nephritis” (Aurinia Pharmaceuticals Inc., priority 2017, dated 2023)",
  "origin": "cited, not measured here",
  "system": "lupus nephritis",
  "settings": "standard of care for LN; cited from earlier work",
  "data": [
    {"compound": "O=P1(N(CCCl)CCCl)NCCCO1", "note": "(centres unmarked) [cyclophosphamide]", "values": [
      {"measurement": "partial remission, cases", "result": "approximately 50%"}
    ]},
    {"compound": "COc1c(C)c2c(c(O)c1C/C=C(\\C)CCC(=O)OCCN1CCOCC1)C(=O)OC2", "note": "[mycophenolate mofetil]", "values": [
      {"measurement": "partial remission, cases", "result": "approximately 50%"}
    ]}
  ]
}
